Source: patent publication US9867827B1, “Methods and formulations for topical treatment of psoriasis” (Florida A&M University, priority 2015, dated 2018)
Entries after “also recorded” stand apart in the source; their conditions may differ.

Assays:
[1] = tested on: TNFα; assay: Western blot analysis of skin samples, TNFα; format: in vivo, C57BL/6 mice; details: compared to the TOPGRAF group, p<0.05
Procedure: The animals were then treated by applying cetylpyridinum chloride (CPC)-urea gel containing blank formulation as negative control, pemetrexed formulation, siTNFα formulation, pemetrexed-siTNFα combination formulation, or a known tacrolimus cream (TOPGRAF) as a positive control.
For western blot analysis, skin samples were minced in lysis cocktail composed of RIPA lysis buffer, protease inhibitor (PI) and phenylmethylsulfonyl fluoride (PMSF). BCA Protein Assay Reagent Kit was used to estimate the protein concentration per the manufacturer's protocol. 50 μg of the extracted protein for each sample was loaded into a gel and subjected to SDS-polyacrylamide electrophoresis (SDS-PAGE). The blots were incubated with primary antibodies for TNFα, NFkB, IL23, IL17, and β-actin and subsequently detected with Horseradish peroxidase-conjugated secondary antibodies using a S[…] PICO Chemiluminescent Substrate (Pierce, Rockford, Ill., USA) and BIORAD CHEMIDOC XRS+ imaging system (Hercules, Calif., USA).

[2] = tested on: NFkB; assay: Western blot analysis of skin samples, NFkB; format: in vivo, C57BL/6 mice; details: compared to the TOPGRAF group, p<0.05
Procedure: (§1) At the end of the study, skin samples were harvested and analyzed for inflammatory proteins by immunohistochemistry and western blot analyses.
(§2) For western blot analysis, skin samples were minced in lysis cocktail composed of RIPA lysis buffer, protease inhibitor (PI) and phenylmethylsulfonyl fluoride (PMSF). BCA Protein Assay Reagent Kit was used to estimate the protein concentration per the manufacturer's protocol. 50 μg of the extracted protein for each sample was loaded into a gel and subjected to SDS-polyacrylamide electrophoresis (SDS-PAGE). The blots were incubated with primary antibodies for TNFα, NFkB, IL23, IL17, and β-actin and subsequently detected with Horseradish peroxidase-conjugated secondary antibodies using a SUPERSIGNAL WEST PICO Chemiluminescent Substrate (Pierce, Rockford, Ill., USA) and BIORAD CHEMIDOC XRS+ imaging system (Hercules, Calif., USA).

[3] = tested on: IL23; assay: Western blot analysis of skin samples, IL23; format: in vivo, C57BL/6 mice; details: compared to the TOPGRAF group, p<0.05
Procedure: as §1, §2

[4] = tested on: IL17; assay: Western blot analysis of skin samples, IL17; format: in vivo, C57BL/6 mice; details: compared to the TOPGRAF group, p<0.05
Procedure: as §1, §2

[5] = tested on: IMQ-induced psoriatic-like plaques; details: after five treatments
Procedure: (§3) Briefly, IMQ cream was applied topically to the shaven dorsal regions of C57BL/6 mice (4 mg/day/animal) to form psoriatic-like plaques. […] The CPC-urea gels containing the foregoing formulations were applied to the inflamed dorsal regions of the animals for five (5) consecutive days.
A clinical scoring method for the PASI was used daily to score the severity of the inflammation induced on the dorsal regions of the mice, based on the extent of erythema, scaling, and epidermal thickening. The PASI score was assigned daily after initiating treatment on a scale of 0 to 4, where 0 indicated no inflammation, 1 indicated slight inflammation, 2 indicated moderate inflammation, 3 indicated marked inflammation, and 4 indicated very severe inflammation.

[6] = tested on: IMQ-induced psoriatic-like plaques; details: after five treatments, topical
Procedure: as §3
The TEWL was estimated using DELFIN VAPOMETER (DELFIN Technologies Ltd, Finland) as a measure of the extent of skin damage and healing with each day of treatment. The device was placed gently on the dorsal region of the mice each day of treatment and the value corresponding to water loss was recorded.

Structure (SMILES): Nc1nc2[nH]cc(CCc3ccc(C(=O)N[C@@H](CCC(=O)O)C(=O)O)cc3)c2c(=O)[nH]1 [pemetrexed]
- expression of TNFα (western blot) [1]: significant reduction
- expression of NFKB (western blot) [2]: significant reduction
- expression of IL23 (western blot) [3]: significant reduction; also recorded: decreased expressions
- expression of IL17 (western blot) [4]: significant reduction; also recorded: decreased expressions
- PASI score compared to tacrolimus cream (TOPGRAF) ([5]; topical): better PASI score; also recorded: superior
- erythema and scaling compared to other groups ([5]; topical): significant reduction in erythema and scaling
- PASI score ([5]; topical CPC-urea gel, scale of 0 to 4): ~0
- psoriatic plaque ([5]; topical, b57 compared to TOPGRAF): reduction in psoriatic plaque
- TEWL compared to tacrolimus cream (TOPGRAF) [6]: better TEWL
